The values below come from PMC7036909, “Discovery of Selective SIRT2 Inhibitors as Therapeutic Agents in B-Cell Lymphoma and Other Malignancies” (Molecules, 2020).

The subject of data set [1] is OCI-Ly8-LAM-53 (OCI, DLBCL) cells. Nature of the data set: Cell viability (CellTiter-Glo), OCI. Format: cell-based. To be noted: 72 h, cellular ATP; read-out: OCI LC50. Here is the method:
(§1) With selective SIRT2 inhibitors in hand, we proceeded to evaluate cytotoxicity of our compounds in Daudi, Raji (Burkitt lymphoma) and OCI-Ly8-LAM-53 (OCI, a representative of several Diffuse Large B-Cell Lymphoma lines; DLBCL) cell lines. Briefly, cells were plated in 96-well plates and treated with inhibitors at desired concentrations for 72 h. Cellular viability was determined by measuring the amount of cellular ATP using CellTiter-Glo assay kit (Promega) and normalized against DMSO-treated controls. […] Selected inhibitors were further evaluated in an expanded panel of cancer cell lines including breast cancer (MCF-7 and MDA-MB231), prostate cancer (PC-3) and glioblastoma multiforme (U-251). […] However, the trend in potency as a function of the structure is consistent with the results obtained against lymphoma cell lines. […] . Cell lines were obtained from ATCC (Manassas, VA, USA) and were grown under standard conditions as recommended. For viability assays, 3000 cells per well were dispensed into 96-well plates and treated with test compounds (final DMSO concentration 0.25%). Cells were incubated with test compounds (or DMSO controls) for 72 h or 5 days as noted at 37 °C in 5% CO2 and viability was determined using the CellTiter-Glo Assay (Promega Corp.) according to manufacturer’s instructions.
(In general: ATP-based viability assays read luminescence as a measure of living cells.)

For data set [2], the target named is T1, SIRT1 (Homo sapiens, UniProt Q96EB6).
T1 sequence (Q96EB6 1-747): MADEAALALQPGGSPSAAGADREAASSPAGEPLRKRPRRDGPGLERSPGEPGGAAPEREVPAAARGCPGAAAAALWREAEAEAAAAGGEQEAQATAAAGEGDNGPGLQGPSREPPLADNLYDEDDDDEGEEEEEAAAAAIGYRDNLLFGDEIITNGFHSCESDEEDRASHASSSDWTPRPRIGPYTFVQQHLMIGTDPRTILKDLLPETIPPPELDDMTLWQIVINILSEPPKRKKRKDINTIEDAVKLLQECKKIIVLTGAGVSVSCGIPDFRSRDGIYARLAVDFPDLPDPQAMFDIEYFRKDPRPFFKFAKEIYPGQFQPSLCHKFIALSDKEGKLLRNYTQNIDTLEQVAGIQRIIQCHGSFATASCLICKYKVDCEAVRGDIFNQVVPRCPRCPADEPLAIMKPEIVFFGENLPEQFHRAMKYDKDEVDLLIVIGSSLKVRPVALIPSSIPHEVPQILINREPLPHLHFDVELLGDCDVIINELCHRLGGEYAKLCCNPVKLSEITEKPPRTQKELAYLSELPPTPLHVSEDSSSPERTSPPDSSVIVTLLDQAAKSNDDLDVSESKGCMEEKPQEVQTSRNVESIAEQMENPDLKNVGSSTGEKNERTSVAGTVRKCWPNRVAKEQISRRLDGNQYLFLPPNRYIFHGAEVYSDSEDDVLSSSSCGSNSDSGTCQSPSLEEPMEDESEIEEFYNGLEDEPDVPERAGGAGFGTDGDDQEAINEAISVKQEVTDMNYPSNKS
Also on record: purchased Cayman Chemical. As to conditions: cited from earlier work.

The target in data set [3] is T2, SIRT3 (Homo sapiens, UniProt Q9NTG7).
T2 sequence (Q9NTG7 1-399): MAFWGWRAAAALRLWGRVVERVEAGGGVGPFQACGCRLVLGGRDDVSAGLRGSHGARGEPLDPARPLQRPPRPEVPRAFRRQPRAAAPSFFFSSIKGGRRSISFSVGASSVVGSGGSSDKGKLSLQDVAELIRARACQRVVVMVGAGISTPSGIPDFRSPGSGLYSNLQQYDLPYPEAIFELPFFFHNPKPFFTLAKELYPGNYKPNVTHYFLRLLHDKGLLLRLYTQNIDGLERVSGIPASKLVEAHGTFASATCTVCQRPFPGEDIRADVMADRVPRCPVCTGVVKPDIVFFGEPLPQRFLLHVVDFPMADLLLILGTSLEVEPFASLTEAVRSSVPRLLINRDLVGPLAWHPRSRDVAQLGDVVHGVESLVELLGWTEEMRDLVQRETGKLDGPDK
Also on record: purchased Cayman Chemical. As to conditions: Figure 1, authors' previous work; cited from earlier work.

In data set [4] the target is T3, SIRT2 (Homo sapiens, UniProt Q8IXJ6).
T3 sequence (Q8IXJ6 1-389): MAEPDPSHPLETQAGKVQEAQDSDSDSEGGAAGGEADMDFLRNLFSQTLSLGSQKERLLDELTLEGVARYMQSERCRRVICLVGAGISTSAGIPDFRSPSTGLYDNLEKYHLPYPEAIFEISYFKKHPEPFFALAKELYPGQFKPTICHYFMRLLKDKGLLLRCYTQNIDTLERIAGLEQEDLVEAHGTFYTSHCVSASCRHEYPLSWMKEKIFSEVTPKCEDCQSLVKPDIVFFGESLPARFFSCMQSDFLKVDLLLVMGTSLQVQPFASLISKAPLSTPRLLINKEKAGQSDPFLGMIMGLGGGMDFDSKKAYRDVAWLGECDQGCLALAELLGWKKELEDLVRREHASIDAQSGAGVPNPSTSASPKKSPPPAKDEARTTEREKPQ
On the set-up: purchased Cayman Chemical. As to conditions: abstract and Figure 1, authors' previous work; cited from earlier work.

In data set [5] the target is T1, SIRT1. Put plainly: SIRT-Glo enzyme inhibition assay, SIRT1. As to conditions: for inhibition at 50 µM: read-out: SIRT1 percentage inhibition at 50 µM compound, 50 µM compound.
For data set [6], the system named is Raji (Burkitt lymphoma) cells. Put plainly: Cell viability (CellTiter-Glo), Raji. It counts as cell-based. As to conditions: Homo sapiens, 72 h, cellular ATP, read-out: Raji LC50. Here is the method: as §1
Data set [7] addresses T3, SIRT2. Nature of the data set: SIRT-Glo enzyme inhibition assay, SIRT2. As to conditions: for IC50: SIRT2 IC50; for inhibition at 50 µM: read-out: SIRT2 percentage inhibition at 50 µM compound, 50 µM compound.
Procedure: SIRT1, SIRT2, and SIRT3 were purchased from Cayman Chemical. Enzyme inhibition assays were performed in 96-well black plates using the SIRT-Glo Assay (Promega Corp.) according to the manufacturer’s instructions. Compounds were dissolved in 100% DMSO and to make 5- or 10-mM stock solutions. For initial enzyme inhibition tests, 50 µM of inhibitory concentration was used. […] IC50 values were determined in triplicate and reported values are averages of two independent experiments.
Data set [8] relates to Daudi (Burkitt lymphoma) cells. Put plainly: Cell viability (CellTiter-Glo), Daudi. It counts as cell-based. To be noted: Homo sapiens, 72 h, cellular ATP, read-out: Daudi LC50. The protocol:
as §1

For data set [9], the target named is T2, SIRT3. Nature of the data set: SIRT-Glo enzyme inhibition assay, SIRT3. As to conditions: for inhibition at 50 µM: read-out: SIRT3 percentage inhibition at 50 µM compound, 50 µM compound.
The subject of data set [10] is U-251 glioblastoma multiforme cells. Put plainly: Cell viability (CellTiter-Glo), U-251. It counts as cell-based. As to conditions: Homo sapiens, cellular ATP, read-out: U251 LC50. The protocol: as §1
Data set [11] deals with MDA-MB231 breast cancer cells. Nature of the data set: Cell viability (CellTiter-Glo), MDA-MB231. It counts as cell-based. As to conditions: Homo sapiens, MDA-MB-231; cellular ATP; read-out: MDA-MB231 LC50. The protocol: as §1
Data set [12] relates to MCF-7 breast cancer cells. Put plainly: Cell viability (CellTiter-Glo), MCF-7. To be noted: Homo sapiens, MCF7; cellular ATP; read-out: MCF7 LC50. It counts as cell-based. Here is the method:
as §1

Data set [13] concerns PC-3 prostate cancer cells. Put plainly: Cell viability (CellTiter-Glo), PC-3. Format: cell-based. To be noted: cellular ATP; read-out: PC3 LC50. The protocol: as §1
Data set [14] relates to α-tubulin acetylation in NCI-H460 cells. Nature of the data set: α-tubulin acetylation by western blot. Format: cell-based. As to conditions: NCI-H460, 0, 5 and 10 µM, 18 h, versus vehicle. Here is the method: To ascertain SIRT2 inhibitory activity of our newly synthesized compounds in a cellular context, we examined acetylation level of α-tubulin, a known SIRT2 substrate. Non-small cell lung cancer cell line NCI-H460 was treated with compound 55 at 0, 5, and 10 µM for 18 h. Cells were harvested, lysed and α-tubulin acetylation was analyzed by western blot (Figure 2).
Figure 2 Determination of α-tubulin acetylation in NCI-H460 cells by western blot following 18 h treatment with 55. GAPDH used as loading control.
In general terms: In western blotting, separated proteins are transferred to a membrane and probed.

Like-named read-outs stand apart in the source and are kept apart here. A value given as a limit tells only on which side of the number the result lay.

Turning to `N#C/C(=C\c1ccc(-c2cc(Cl)ccc2Cl)o1)C(=O)Nc1cccc2ncccc12` [AGK2, reference compound], the CC50 in [1] came out at 73.2 µM. For the same compound, the IC50 (usually the concentration that inhibits the measured activity by half) in data set [2] was over 50 µM.
With `COc1cc2ccccc2c(Cc2c(-c3ccc(C)cc3)[nH][nH]c2=O)c1O` [Compound 2], the IC50 in [3] was over 200 µM; in [2] (abstract and Figure 1, authors' previous work), 37 µM; in [4], over 200 µM.
As to `NC(=O)C(Cc1c(O)ccc2cc(Br)ccc12)C(=O)c1ccc(Br)cc1` (centres unmarked) [Compound 22, 2-[(6-Bromo-2-hydroxynaphthalen-1-yl)methyl]-3-(4-bromo)-3-oxopropanamide], the inhibition – broadly, how much of the control response was suppressed – at 50 µM in data set [5] amounted to 7%; in data set [7], 93%; in data set [9], 42%. For the same compound, the CC50 amounted to 7.8 µM in data set [6], 7 µM in data set [8] and 1.6 µM in data set [1]. Also, inhibition in data set [7] was half-maximal at 2.5 µM (IC50).
As to `O=C(NCCO)C(Cc1c(O)ccc2cc(Br)ccc12)C(=O)c1ccc(Br)cc1` (centres unmarked) [Compound 48, 2-[(6-Bromo-2-hydroxynaphthalen-1-yl)methyl]-3-(4-bromophenyl)-N-(2-hydroxyethyl)-3-oxopropanamide], the inhibition at 50 µM in data set [5] turned out to be 18%; in [7], 96%; in data set [9] it was 29%. The CC50 in [6] came to 10 µM; in [8] it was 10.5 µM; in [10], 15.8 µM; in data set [1] it was 5 µM; in data set [11], 14.7 µM; in data set [12], 11.8 µM. The CC50 in [13] was determined as 11.8 µM. In data set [7], the IC50 was 0.52 µM.
As to `O=C(NCCO)C(Cc1c(O)ccc2cc(Br)ccc12)C(=O)c1ccc(C(F)(F)F)cc1` (centres unmarked) [Compound 49], the “selectivity for SIRT2 over SIRT1” value in data set [5] (SIRT2 versus SIRT1) is given as over 400 fold. Further, the inhibition at 50 µM in data set [5] stood at 15%; in data set [7], 99%; in data set [9] it was 27%. The CC50 in data set [6] stood at 16.5 µM; in data set [8], 12 µM; in data set [10], 15.7 µM; in data set [1] it was 13.1 µM; in [11], 23.5 µM; in data set [12], 20.2 µM. The CC50 in data set [13] is 18.4 µM. The same compound came in with an IC50 in data set [7] of 0.27 µM. Further, in data set [9] (SIRT2 versus SIRT3), the “selectivity for SIRT2 over SIRT3” value is over 800 fold.
Consider `NC(=O)CCNC(=O)C(Cc1c(O)ccc2cc(Br)ccc12)C(=O)c1ccc(Br)cc1` (centres unmarked) [Compound 51, 2-[(6-Bromo-2-hydroxynaphthalen-1-yl)methyl]-3-(4-bromophenyl)-N-(2-carbamoylethyl)-3-oxopropanamide], for which the inhibition at 50 µM in data set [5] was 20%; in data set [7] it was 98%; in [9], 14%. In addition, the CC50 turned out to be 16.7 µM in data set [6], 19.2 µM in data set [8], 25.9 µM in data set [10] and 10.2 µM in data set [1]. This compound also registered an IC50 in [7] of 0.58 µM.
`NC(=O)CCNC(=O)C(Cc1c(O)ccc2cc(Br)ccc12)C(=O)c1ccc(C(F)(F)F)cc1` (centres unmarked) [Compound 52, 2-[(6-Bromo-2-hydroxynaphthalen-1-yl)methyl]-N-(2-carbamoylethyl)-3-oxo-3-[4-(trifluoromethyl)phenyl]-propenamide]: the inhibition at 50 µM in data set [5] came out at 0%; in [7], 93%; in [9], 21%. Moreover, the CC50 stood at 19.4 µM in data set [6], 28.2 µM in data set [8] and 25.5 µM in data set [1]. The same compound returned an IC50 in [7] of 0.65 µM.
For `CNC(=O)CCNC(=O)C(Cc1c(O)ccc2cc(Br)ccc12)C(=O)c1ccc(Cl)cc1` (centres unmarked) [Compound 54, 2-[(6-Bromo-2-hydroxynaphthalen-1-yl)methyl]-3-(4-chlorophenyl)-N-[2-(methylcarbamoyl)ethyl]-3-oxo-propanamide], the inhibition at 50 µM in [5] came out at 12%; in data set [7], 99%; in data set [9], 6%. The CC50 was determined as 18.5 µM in data set [6]; 15.8 µM in data set [8]; 17.3 µM in [10]; 11.2 µM in data set [1]; 23.8 µM in data set [11]; 18 µM in data set [12]. Besides, in data set [13], the CC50 was found to be 16.5 µM. For the same compound, in data set [7], half-maximal inhibition (IC50) required 0.59 µM.
Regarding `CNC(=O)CCNC(=O)C(Cc1c(O)ccc2cc(Br)ccc12)C(=O)c1ccc(C(F)(F)F)cc1` (centres unmarked) [Compound 55, 2-[(6-Bromo-2-hydroxynaphthalen-1-yl)methyl]-N-[2-(methylcarbamoyl)ethyl]-3-oxo-3-[4-(trifluoromethyl)-phenyl]propenamide], the CC50 was 11.9 µM in data set [6]; 11.9 µM in data set [8]; 21.1 µM in data set [10]; 24.9 µM in data set [1]; 22.8 µM in [11]; 21.6 µM in data set [12]. For the same compound, the CC50 in data set [13] worked out at 17.2 µM. The same compound had an IC50 in [7] of 0.25 µM. The inhibition at 50 µM in data set [7] was 100%; in [9], under 25%. The “SIRT3 percentage inhibition at 50 µM compound” value in data set [9] (50 µM compound, 50 µM) is reported as 20%. In addition, in data set [14], the α-tubulin acetylation entry is on record as “dose-dependent increase in tubulin acetylation”.
